18 compounds from patent publication US11236068B2, “Fused ring compounds” (Genentech, Inc., priority 2018, dated 2022) can be followed below.

Where only a bound is given, the exact number is not on record here.

Data set [1] in a line: Whole blood stability assay. The format is in vitro ADME. The conditions noted are these: fresh whole blood, drug final concentration 1 μM, 37° C., 180 minutes. Here is the method:
Whole Blood Stability Assay
A whole blood stability assay was performed using fresh blood with a drug final concentration of 1 μM. The drug-blood mixtures were incubated at 37° C. for 180 minutes.

The target of data set [2] is T1, K-Ras G12C (Homo sapiens (Human), UniProt P01116, G12C). Kind of data set: K-Ras G12C, SOS1, Raf RBD HTRF assay for inhibition of GTP exchange. The conditions noted are these: 18 hours incubation with K-Ras G12C at room temperature, SOS1-mediated GTP exchange. The data set is classed as biochemical. Here is the method:
K-Ras G12C, SOS1, Raf RBD Homogeneous Time Resolved Fluorescence (HTRF) Assay for Inhibition of GTP Exchange
After 18 hours at room temperature, the SOS1 GTP exchange factor (1.67 nM during exchange, 1.25 nM final) was added to initiate nucleotide exchange to GTP (200 μM during exchange, 150 µM final). The level of GTP exchange was assessed by addition of a Ras binding domain derived from C-Raf and the HTRF detection antibodies Tb-anti-FLAG and D2-anti-his (Cis-Bio) at 50 nM, 1 nM and 12.5 nM, respectively. After 2 hours, the ratio of 665 nm to 615 nm emission with 320 nm excitation was measured on an Envision plate reader (Perkin Elmer).
The final reaction volume was 20l in a ProxiPlate-384F Plus (Perkin Elmer), in buffer containing 20 mM HEPES, 150 mM NaCl, 1 mM MgCl2, 0.1% BSA, 0.03% Tween-20 and 1 mM DTT. […] HTRF data are presented below in Table 3.
On the technique in general: TR-FRET usually uses a lanthanide donor and a delayed reading to cut background.
Target sequence in this assay (P01116 other isoform, or with tags, fused parts or gaps G12C): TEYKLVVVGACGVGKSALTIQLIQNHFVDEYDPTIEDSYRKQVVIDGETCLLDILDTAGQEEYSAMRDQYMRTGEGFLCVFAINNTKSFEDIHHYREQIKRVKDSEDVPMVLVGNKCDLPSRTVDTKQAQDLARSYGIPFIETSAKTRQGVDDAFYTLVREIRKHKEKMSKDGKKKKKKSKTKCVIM

Data set [3] addresses T1, K-Ras G12C. Put plainly: Western blot assay for in cell alkylation of K-Ras G12C (HCC1171 cells). Conditions: 18 hours at 37° C., 7 point dose response. The data set is classed as cell-based. Here is the method: HCC1171 cells were maintained in RPMI1640 supplemented with 10% FBS. Cells were plated in a 96-well plate at 20,000 cells/well and the following day compounds were added to the cells. After 18 hours at 37° C., cells were lysed in RIPA buffer (Sigma RO278) with 0.5% SDS and protease/phosphatase inhibitor cocktail. After through mixing to enable complete lysis, the lysates were cleared by centrifugation before 20 µl was transferred from each well and combined with loading buffer and reducing agent. After heating for 10 minutes at 95° C., […] of each sample was loaded onto a 4-20% Tris-Glycine gel and electrophoresed at 110V for 165 minutes in SDS-PAGE running buffer. Gels were transferred to a nitrocellulose membrane, blocked for 1 hour and stained overnight at 4° C. with primary antibody against K-Ras (polyclonal Proteintech 12063-1-AP). The membrane was then washed thoroughly and counterstained with anti-rabbit IRDye 800CW (LI-COR 926-32211) for one hour at room temperature. After final washes, the membrane was imaged on a LI-COR Odyssey CLx at medium resolution. […] To quantify this affect, the LICOR software was used to draw a rectangle over alkylated and unalkylated bands for each well and measured the total fluorescent intensity (FI) in each of these bands. The following formula was then used to calculate % alkylation: FI(alkylated)/(FI(alkylated)+FI(unalkylated))*100 for each well.
A 7 point dose response curve was used to determine the IC50 for each compound. Cell alkylation data are presented below in Table 3.
Target sequence in this assay (P01116 other isoform, or with tags, fused parts or gaps G12C): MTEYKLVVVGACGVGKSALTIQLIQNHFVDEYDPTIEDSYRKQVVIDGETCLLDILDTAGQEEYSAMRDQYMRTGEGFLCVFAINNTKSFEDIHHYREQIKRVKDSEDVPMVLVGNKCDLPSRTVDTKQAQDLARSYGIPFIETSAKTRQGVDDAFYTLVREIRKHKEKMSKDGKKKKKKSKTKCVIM
A general note: In western blotting, separated proteins are transferred to a membrane and probed.

`C=CC(=O)N1CCN(c2ncnc3c(F)c(-c4nc(N)cc(C)c4C(F)(F)F)c(Cl)cc23)[C@@H](C)C1` [Example 19, 1-((3S)-4-(7-(6-amino-4-methyl-3-(trifluoromethyl)pyridin-2-yl)-6-chloro-8-fluoroquinazolin-4-yl)-3-methylpiperazin-1-yl)prop-2-en-1-one]: in data set [1], the half-life at 1 μM amounted to 2.67 h.

With `C=CC(=O)N1CCN(c2ncnc3cc(-c4nc(N)ccc4C(F)(F)F)c(S(C)(=O)=O)cc23)CC1` [Example 28, 1-[4-[7-[6-amino-3-(trifluoromethyl)-2-pyridyl]-6-methylsulfonyl-quinazolin-4-yl]piperazin-1-yl]prop-2-en-1-one], the IC50 against K-Ras G12C [2] amounted to 0.54 µM. Besides, on K-Ras G12C [3], the EC50 stood at 7.8 µM.

On K-Ras G12C [2], `C=CC(=O)N1CCN(c2ncnc3cc(-c4nc(N)cc5cccc(F)c45)c(Cl)cc23)CC1` [Example 48, 1-[4-[7-(3-amino-8-fluoroisoquinoline-1-yl)-6-chloroquinazolin-4-yl]piperazin-1-yl]prop-2-en-1-one] registered an IC50 of 0.032 µM. At K-Ras G12C [3], this compound gave an EC50 of 0.14 µM.

Consider `C=CC(=O)N1CCN(c2nc(OC[C@@H]3CCCN3C)nc3cc(-c4nc(N)cc(C)c4C(F)(F)F)c(Cl)cc23)[C@@H](C)C1` [Example 61, 1-((S)-4-(7-(6-amino-4-methyl-3-(trifluoromethyl)pyridin-2-yl)-6-chloro-2-(((S)-1-methylpyrrolidin-2-yl)methoxy)quinazolin-4-yl)-3-methylpiperazin-1-yl)prop-2-en-1-one], for which the EC50 at K-Ras G12C [3] came to 0.002 µM. In data set [1], the half-life at 1 μM is 2.67 h.

On to `Cc1cc(N)nc(-c2cc3nc(OC[C@@H]4CCCN4C)nc(N4CCN(C(=O)/C=C/C(F)F)C[C@@H]4C)c3cc2Cl)c1C(F)(F)F` [Example 65, (E)-1-((S)-4-(7-(6-amino-4-methyl-3-(trifluoromethyl)pyridin-2-yl)-6-chloro-2-(((S)-1-methylpyrrolidin-2-yl)methoxy)quinazolin-4-yl)-3-methylpiperazin-1-yl)-4,4-difluorobut-2-en-1-one], for which a half-maximal response on K-Ras G12C [3] (EC50) required 0.0076 µM. This compound came in with a half-life at 1 μM in data set [1] of 0.617 h.

On to `C=CC(=O)N1CCN(c2nc(OC[C@@H]3C[C@@H](F)CN3C)nc3c(F)c(-c4nc(N)cc(C)c4C(F)(F)F)c(Cl)cc23)[C@@H](C)C1` [Example 69, 1-[(3S)-4-[7-[6-amino-4-methyl-3-(trifluoromethyl)-2-pyridyl]-6-chloro-8-fluoro-2-[[(2S,4R)-4-fluoro-1-methyl-pyrrolidin-2-yl]methoxy]quinazolin-4-yl]-3-methyl-piperazin-1-yl]prop-2-en-1-one], for which, on K-Ras G12C [3], the EC50 worked out at 0.001 µM. In data set [1], this compound displayed a half-life at 1 μM greater than 9 h.

`C=CC(=O)N1CCN(c2nc(OC[C@@H]3CCCN3C)nc3cc(-c4nc(N)ccc4C(F)(F)F)c(Cl)cc23)CC1` [Example 70, (S)-1-(4-(7-(6-amino-3-(trifluoromethyl)pyridin-2-yl)-6-chloro-2-((1-methylpyrrolidin-2-yl)methoxy)quinazolin-4-yl)piperazin-1-yl)prop-2-en-1-one] gave a half-maximal effective concentration (EC50) on K-Ras G12C [3] of 0.019 µM. Further, in data set [1], the half-life at 1 μM worked out at 1.02 h.

Turning to `C=CC(=O)N1CCN(c2nc(OC[C@@H]3C[C@@H](OCC)CN3C)nc3cc(-c4nc(N)ccc4C(F)(F)F)c(Cl)cc23)CC1` [Example 71, 1-(4-(7-(6-amino-3-(trifluoromethyl)pyridin-2-yl)-6-chloro-2-(((2S,4R)-4-ethoxy-1-methylpyrrolidin-2-yl)methoxy)quinazolin-4-yl)piperazin-1-yl)prop-2-en-1-one], the response on K-Ras G12C [3] was half-maximal at 0.018 µM (EC50). In data set [1], the half-life at 1 μM was found to be 1.52 h.

The compound `C=CC(=O)N1CCN(c2nc(OC[C@@H]3[C@@H]4C[C@@H]4CN3C)nc3cc(-c4nc(N)ccc4C(F)(F)F)c(Cl)cc23)CC1` [Example 78b, 1-(4-(7-(6-amino-3-(trifluoromethyl)pyridin-2-yl)-6-chloro-2-(((1R,2S,5S)-3-methyl-3-azabicyclo[3.1.0]hexan-2-yl)methoxy)quinazolin-4-yl)piperazin-1-yl)prop-2-en-1-one] yielded a concentration giving a half-maximal response (EC50) at K-Ras G12C [3] of 0.04 µM.

`C=CC(=O)N1CCN(c2nc(OCC3CCC(COC)N3C)nc3cc(-c4nc(N)ccc4C(F)(F)F)c(Cl)cc23)CC1` (centres unmarked) [Example 80, 1-(4-(7-(6-amino-3-(trifluoromethyl)pyridin-2-yl)-6-chloro-2-((5-(methoxymethyl)-1-methylpyrrolidin-2-yl)methoxy)quinazolin-4-yl)piperazin-1-yl)prop-2-en-1-one]: at K-Ras G12C [3], a half-maximal effect (EC50) was put at 0.071 µM.

For the compound `C=CC(=O)N1CCN(c2nc(OC[C@@H]3CCCN3C3COC3)nc3cc(-c4nc(N)ccc4C(F)(F)F)c(Cl)cc23)CC1` [Example 87, 1-[4-[7-[6-amino-3-(trifluoromethyl)-2-pyridyl]-6-chloro-2-[[(2S)-1-(oxetan-3-yl)pyrrolidin-2-yl]methoxy]quinazolin-4-yl]piperazin-1-yl]prop-2-en-1-one], the EC50 on K-Ras G12C [3] was found to be 0.18 µM.

For `C=CC(=O)N1CCN(c2nc(OCC3(N(C)C)CC3)nc3cc(-c4nc(N)ccc4C(F)(F)F)c(Cl)cc23)CC1` [Example 88, 1-(4-(7-(6-amino-3-(trifluoromethyl)pyridin-2-yl)-6-chloro-2-((1-(dimethylamino)cyclopropyl)methoxy)quinazolin-4-yl)piperazin-1-yl)prop-2-en-1-one], on K-Ras G12C [3], it took 0.24 µM to reach a half-maximal effect (EC50).

With `C=CC(=O)N1CCN(c2nc(OC[C@@H]3C[C@@H](F)CN3CCOC)nc3cc(-c4nc(N)ccc4C(F)(F)F)c(Cl)cc23)CC1` [Example 89, 1-[4-[7-[6-amino-3-(trifluoromethyl)-2-pyridyl]-6-chloro-2-[[(2S,4R)-4-fluoro-1-(2-methoxyethyl)pyrrolidin-2-yl]methoxy]quinazolin-4-yl]piperazin-1-yl]prop-2-en-1-one], the EC50 on K-Ras G12C [3] was 0.029 µM.

`C=CC(=O)N1CCN(c2nc(OC[C@@H]3C[C@@H](F)[C@H](C)N3C)nc3cc(-c4nc(N)ccc4C(F)(F)F)c(Cl)cc23)CC1` [Example 90, 1-[4-[7-[6-amino-3-(trifluoromethyl)-2-pyridyl]-6-chloro-2-[[(2S,4R,5S)-4-fluoro-1,5-dimethyl-pyrrolidin-2-yl]methoxy]quinazolin-4-yl]piperazin-1-yl]prop-2-en-1-one] gave an EC50 on K-Ras G12C [3] of 0.055 µM.

For the compound `C=CC(=O)N1CCN(c2nc(OC[C@@H]3CCCN3CCOC)nc3cc(-c4nc(N)ccc4C(F)(F)F)c(Cl)cc23)CC1` [Example 91, 1-[4-[7-[6-amino-3-(trifluoromethyl)-2-pyridyl]-6-chloro-2-[[(2S)-1-(2-methoxyethyl)pyrrolidin-2-yl]methoxy]quinazolin-4-yl]piperazin-1-yl]prop-2-en-1-one], the EC50 at K-Ras G12C [3] was 0.04 µM.

`C=CC(=O)N1CCN(c2nc(OC[C@@H]3C[C@@H](OC(F)F)CN3C)nc3cc(-c4nc(N)ccc4C(F)(F)F)c(Cl)cc23)CC1` [Example 92, 1-[4-[7-[6-amino-3-(trifluoromethyl)-2-pyridyl]-6-chloro-2-[[(2S,4R)-4-(difluoromethoxy)-1-methyl-pyrrolidin-2-yl]methoxy]quinazolin-4-yl]piperazin-1-yl]prop-2-en-1-one] had an EC50 on K-Ras G12C [3] of 0.018 µM. In data set [1], this compound had a half-life at 1 μM of 3 h.

For the compound `C=CC(=O)N1CCN(c2nc(OC[C@@H]3CCCN3)nc3c(F)c(-c4nc(N)cc(C)c4C(F)(F)F)c(Cl)cc23)[C@@H](C)C1` [Example 93, 1-((3S)-4-(7-(6-amino-4-methyl-3-(trifluoromethyl)pyridin-2-yl)-6-chloro-8-fluoro-2-(((S)-pyrrolidin-2-yl)methoxy)quinazolin-4-yl)-3-methylpiperazin-1-yl)prop-2-en-1-one], the concentration for a half-maximal effect (EC50) on K-Ras G12C [3] worked out at 0.13 µM.

Regarding `C=CC(=O)N1CCN(c2nc(OCC3(C)C[C@@H](F)CN3C)nc3cc(-c4nc(N)ccc4C(F)(F)F)c(Cl)cc23)CC1` (stereo partly drawn) [Example 96, 1-[4-[7-[6-amino-3-(trifluoromethyl)-2-pyridyl]-6-chloro-2-[[(4R)-4-fluoro-1,2-dimethyl-pyrrolidin-2-yl]methoxy]quinazolin-4-yl]piperazin-1-yl]prop-2-en-1-one], at K-Ras G12C [3], the concentration giving a half-maximal response (EC50) was determined as 0.022 µM.

As a reminder, the half-life is how long it takes for the measured level to halve. Low values mean fast loss, high ones slow loss. The term IC50 denotes the concentration at which inhibition is half-maximal. One may read the EC50 as the concentration giving half of the maximal effect. Lower therefore signals an effect from little substance.
